{"source": "ChEMBL document CHEMBL6109096", "about": "“Synthesis, anti-allergic rhinitis evaluation and mechanism investigation of novel 1,2,4-triazole-enamides as CB1 R antagonist” (Eur J Med Chem, 2025)", "key": {"[1]": {"system": "RAW264.7", "assay": "Cytotoxicity against mouse RAW264.7 cells assessed as reduction in cell viability at 10 uM incubated for 24 hrs by CCK-8 assay", "assay_type": "toxicity, cell-based", "conditions": "raw264.7, 24 h"}, "[2]": {"system": "RAW264.7", "assay": "Inhibition of IL-1beta (unknown origin) in mouse RAW264.7 relative to control", "assay_type": "cell-based", "conditions": "dose or concentration not given here"}, "[3]": {"system": "Mus musculus", "assay": "Anti-inflammatory activity in ovalbumin-induced allergic rhinitis male Balb/c mouse model assessed as reduction in sneezing administered orally via gavage for 7 days", "assay_type": "functional, organism-based", "conditions": "dose 50-150 mg/kg, route po, time 7.0 day"}, "[4]": {"system": "RAW264.7", "assay": "Downregulation of p-P38 protein expression in LPS-induced mouse RAW264.7 cells at 5 to 20 uM by Western blotting analysis", "assay_type": "functional, cell-based", "conditions": "dose 5-20 µM"}, "[5]": {"system": "Mus musculus", "assay": "Anti-inflammatory activity in ovalbumin-induced allergic rhinitis male Balb/c mouse model assessed as reduction in serum histamine expression at 50 to 150 mg/kg, po administered via gavage for 7 days by ELISA", "assay_type": "functional, organism-based", "conditions": "dose 50-150 mg/kg, time 7.0 day"}, "[6]": {"system": "RAW264.7", "assay": "Downregulation of p-ERK protein expression in LPS-induced mouse RAW264.7 cells at 5 to 20 uM by Western blotting analysis", "assay_type": "functional, cell-based", "conditions": "dose 5-20 µM"}, "[7]": {"system": "RAW264.7", "assay": "Inhibition of IL-6 (unknown origin) in mouse RAW264.7 relative to control", "assay_type": "cell-based", "conditions": "dose or concentration not given here"}, "[8]": {"system": "RAW264.7", "assay": "Anti-inflammatory activity in LPS-induced mouse RAW264.7 cells assessed as reduction in TNF-alpha mRNA expression incubated for 24 hrs by qRT-PCR analysis", "assay_type": "functional, cell-based", "conditions": "dose 5-20 µM"}, "[9]": {"system": "Mus musculus", "assay": "Anti-inflammatory activity in ovalbumin-induced allergic rhinitis male Balb/c mouse assessed as reduction in number of eosinophils on nasal lavage fluid at 150 mg/kg, po administered via gavage for 7 days by giemsa staining based analysis", "assay_type": "functional, organism-based", "conditions": "time 7.0 day"}, "[10]": {"system": "Mus musculus", "assay": "Anti-inflammatory activity in ovalbumin-induced allergic rhinitis male Balb/c mouse assessed as reduction in number of cells on nasal lavage fluid at 50 to 150 mg/kg, po administered via gavage for 7 days by giemsa staining based analysis", "assay_type": "functional, organism-based", "conditions": "dose 50-150 mg/kg, time 7.0 day"}, "[11]": {"system": "Mus musculus", "assay": "Anti-inflammatory activity in ovalbumin-induced allergic rhinitis male Balb/c mouse model assessed as decrease in p-p38 intranuclear expression in nasal mucosal at 50 to 150 mg/kg, po administered via gavage for 7 days by immunofluorescence staining based analysis", "assay_type": "functional, organism-based", "conditions": "dose 50-150 mg/kg, time 7.0 day"}, "[12]": {"system": "Mus musculus", "assay": "Anti-inflammatory activity in ovalbumin-induced allergic rhinitis male Balb/c mouse assessed as reduction in inflammation of nasal mucosal tissue at 50 to 150 mg/kg, po administered via gavage for 7 days by H and E staining based analysis", "assay_type": "functional, organism-based", "conditions": "dose 50-150 mg/kg, time 7.0 day"}, "[13]": {"system": "Mus musculus", "assay": "Anti-inflammatory activity in ovalbumin-induced allergic rhinitis male Balb/c mouse assessed as reduction in number of goblet cells in nasal mucosal tissues at 50 to 150 mg/kg, po administered via gavage for 7 days by PAS staining based analysis", "assay_type": "functional, organism-based", "conditions": "dose 50-150 mg/kg, time 7.0 day"}, "[14]": {"system": "Mus musculus", "assay": "Anti-inflammatory activity in ovalbumin-induced allergic rhinitis male Balb/c mouse assessed as reduction in number of mast cells on nasal lavage fluid at 50 to 150 mg/kg, po administered via gavage for 7 days by giemsa staining based analysis", "assay_type": "functional, organism-based", "conditions": "dose 50-150 mg/kg, time 7.0 day"}, "[15]": {"system": "Mus musculus", "assay": "Anti-inflammatory activity in ovalbumin-induced allergic rhinitis male Balb/c mouse model assessed as reduction in serum histamine expression at 150 mg/kg, po administered via gavage for 7 days by ELISA", "assay_type": "functional, organism-based", "conditions": "time 7.0 day"}, "[16]": {"system": "Mus musculus", "assay": "Anti-inflammatory activity in ovalbumin-induced allergic rhinitis male Balb/c mouse assessed as reduction in number of mast cells on nasal lavage fluid at 150 mg/kg, po administered via gavage for 7 days by giemsa staining based analysis", "assay_type": "functional, organism-based", "conditions": "time 7.0 day"}, "[17]": {"system": "Mus musculus", "assay": "Anti-inflammatory activity in ovalbumin-induced allergic rhinitis male Balb/c mouse model assessed as reduction in IgE expression at 50 mg/kg, po administered via gavage for 7 days (reference value: 0.268 +/- 0.045)", "assay_type": "functional", "conditions": "time 7 day"}, "[18]": {"system": "Mus musculus", "assay": "Anti-inflammatory activity in ovalbumin-induced allergic rhinitis male Balb/c mouse model assessed as reduction in IgE expression at 150 mg/kg, po administered via gavage for 7 days (reference value: 0.268 +/- 0.045)", "assay_type": "functional", "conditions": "time 7 day"}, "[19]": {"system": "RAW264.7", "assay": "Downregulation of p-P38 expression in mouse RAW264.7 cells at 5 to 20 uM by immunofluorescence staining based analysis", "assay_type": "functional, cell-based", "conditions": "dose 5-20 µM"}, "[20]": {"system": "Mus musculus", "assay": "Anti-inflammatory activity in ovalbumin-induced allergic rhinitis male Balb/c mouse assessed as reduction in number of eosinophils on nasal lavage fluid at 50 to 150 mg/kg, po administered via gavage for 7 days by giemsa staining based analysis", "assay_type": "functional, organism-based", "conditions": "dose 50-150 mg/kg, time 7.0 day"}, "[21]": {"system": "RAW264.7", "assay": "Anti-inflammatory activity in LPS-induced mouse RAW264.7 cells assessed as reduction in IL-1beta mRNA expression incubated for 24 hrs by qRT-PCR analysis", "assay_type": "functional, cell-based", "conditions": "dose 5-20 µM"}, "[22]": {"system": "RAW264.7", "assay": "Downregulation of P-P65 protein expression in LPS-induced mouse RAW264.7 cells at 5 to 20 uM by Western blotting analysis", "assay_type": "functional, cell-based", "conditions": "dose 5-20 µM"}, "[23]": {"system": "RAW264.7", "assay": "Anti-inflammatory activity in LPS-induced mouse RAW264.7 cells assessed as reduction in IL-6 mRNA expression incubated for 24 hrs by qRT-PCR analysis", "assay_type": "functional, cell-based", "conditions": "dose 5-20 µM"}, "[24]": {"system": "RAW264.7", "assay": "Downregulation of P-IKBalpha protein expression in LPS-induced mouse RAW264.7 cells at 5 to 20 uM by Western blotting analysis", "assay_type": "functional, cell-based", "conditions": "dose 5-20 µM"}, "[25]": {"system": "Mus musculus", "assay": "Anti-inflammatory activity in ovalbumin-induced allergic rhinitis male Balb/c mouse model assessed as reduction in IL-4 expression in nasal lavage fluid at 50 to 150 mg/kg, po administered via gavage for 7 days by ELISA", "assay_type": "functional, organism-based", "conditions": "dose 50-150 mg/kg, time 7.0 day"}, "[26]": {"system": "RAW264.7", "assay": "Downregulation of p-P38 intranuclear expression in mouse RAW264.7 cells at 5 to 20 uM by immunofluorescence staining based analysis", "assay_type": "functional, cell-based", "conditions": "dose 5-20 µM"}, "[27]": {"system": "Mus musculus", "assay": "Anti-inflammatory activity in ovalbumin-induced allergic rhinitis male Balb/c mouse model assessed as reduction in nose scratching administered orally via gavage for 7 days", "assay_type": "functional, organism-based", "conditions": "dose 50-150 mg/kg, route po, time 7.0 day"}, "[28]": {"system": "Mus musculus", "assay": "Anti-inflammatory activity in ovalbumin-induced allergic rhinitis male Balb/c mouse model assessed as reduction in IgE expression at 100 mg/kg, po administered via gavage for 7 days (reference value: 0.268 +/- 0.045)", "assay_type": "functional", "conditions": "time 7 day"}, "[29]": {"system": "RAW264.7", "assay": "Downregulation of p-JNK protein expression in LPS-induced mouse RAW264.7 cells at 5 to 20 uM by Western blotting analysis", "assay_type": "functional, cell-based", "conditions": "dose 5-20 µM"}, "[30]": {"system": "RAW264.7", "assay": "Downregulation of CB1 R expression in LPS-induced mouse RAW264.7 cells at 5 to 20 uM by immunofluorescence staining based analysis", "assay_type": "functional, cell-based", "conditions": "dose 5-20 µM"}}, "note": "The source made the active and inactive calls. The rule behind the calls is not given here.", "data": [{"smiles": "CN(/C=C\\c1ccccc1)C(=O)c1ncn(-c2ccccc2)n1", "values": [{"measurement": "Activity", "setting": "[1]", "value": "Non-toxic"}]}, {"smiles": "CN(/C=C\\c1ccccc1)C(=O)c1nc(C2CCCCC2)n(-c2ccccc2)n1", "values": [{"measurement": "inhibition", "setting": "[2]", "value": 77, "unit": "%"}, {"measurement": "Activity", "setting": "[3]", "value": "Dose-dependent-effect"}, {"measurement": "Activity", "setting": "[4]", "value": "Active"}, {"measurement": "Activity", "setting": "[5]", "value": "Active"}, {"measurement": "Activity", "setting": "[6]", "value": "Active"}, {"measurement": "inhibition", "setting": "[7]", "value": 88, "unit": "%"}, {"measurement": "Activity", "setting": "[8]", "value": "Dose-dependent-effect"}, {"measurement": "Activity", "setting": "[9]", "value": "Active; Most Effective Group Compared To Other Dosing Group"}, {"measurement": "Activity", "setting": "[10]", "value": "Active"}, {"measurement": "Activity", "setting": "[11]", "value": "Active"}, {"measurement": "Activity", "setting": "[12]", "value": "Active"}, {"measurement": "Activity", "setting": "[13]", "value": "Active"}, {"measurement": "Activity", "setting": "[14]", "value": "Active"}, {"measurement": "Activity", "setting": "[15]", "value": "Active; More Effective Than Other Dosing Group"}, {"measurement": "Activity", "setting": "[16]", "value": "Active; Most Effective Group Compared To Other Dosing Group"}, {"measurement": "Activity", "setting": "[17]", "value": 0.192}, {"measurement": "Activity", "setting": "[18]", "value": 0.182}, {"measurement": "Activity", "setting": "[19]", "value": "Active"}, {"measurement": "Activity", "setting": "[20]", "value": "Active"}, {"measurement": "Activity", "setting": "[21]", "value": "Dose-dependent-effect"}, {"measurement": "Activity", "setting": "[22]", "value": "Active"}, {"measurement": "Activity", "setting": "[23]", "value": "Dose-dependent-effect"}, {"measurement": "Activity", "setting": "[24]", "value": "Active"}, {"measurement": "Activity", "setting": "[25]", "value": "Active"}, {"measurement": "Activity", "setting": "[26]", "value": "Active"}, {"measurement": "Activity", "setting": "[27]", "value": "Dose-dependent-effect"}, {"measurement": "Activity", "setting": "[28]", "value": 0.212}, {"measurement": "Activity", "setting": "[1]", "value": "Non-toxic"}, {"measurement": "Activity", "setting": "[29]", "value": "Active"}, {"measurement": "Activity", "setting": "[30]", "value": "Active"}]}, {"smiles": "Cc1ccccc1-c1nc(C(=O)N(C)/C=C\\c2ccccc2)nn1-c1ccccc1", "values": [{"measurement": "Activity", "setting": "[1]", "value": "Non-toxic"}]}, {"smiles": "CN(/C=C\\c1ccccc1)C(=O)c1nc(-c2ccc(Br)cc2)n(-c2ccccc2)n1", "values": [{"measurement": "Activity", "setting": "[1]", "value": "Non-toxic"}]}, {"smiles": "CN(/C=C\\c1ccccc1)C(=O)c1nc(-c2cccc(Cl)c2)n(-c2ccccc2)n1", "values": [{"measurement": "Activity", "setting": "[1]", "value": "Non-toxic"}]}, {"smiles": "Cc1ccc(-c2nc(C(=O)N(C)/C=C\\c3ccccc3)nn2-c2ccccc2)cc1", "values": [{"measurement": "Activity", "setting": "[1]", "value": "Non-toxic"}]}, {"smiles": "CN(/C=C\\c1ccccc1)C(=O)c1nc(-c2ccco2)n(-c2ccccc2)n1", "values": [{"measurement": "Activity", "setting": "[1]", "value": "Non-toxic"}]}, {"smiles": "CN(/C=C\\c1ccccc1)C(=O)c1nc(-c2ccc(Cl)cc2)n(-c2ccccc2)n1", "values": [{"measurement": "Activity", "setting": "[1]", "value": "Non-toxic"}]}, {"smiles": "CCCc1nc(C(=O)N(C)/C=C\\c2ccccc2)nn1-c1ccccc1", "values": [{"measurement": "Activity", "setting": "[1]", "value": "Non-toxic"}]}, {"smiles": "CN(/C=C\\c1ccccc1)C(=O)c1nc(-c2ccccc2)n(-c2ccccc2)n1", "values": [{"measurement": "Activity", "setting": "[1]", "value": "Non-toxic"}]}, {"smiles": "CCc1nc(C(=O)N(C)/C=C\\c2ccccc2)nn1-c1ccccc1", "values": [{"measurement": "Activity", "setting": "[1]", "value": "Non-toxic"}]}, {"smiles": "CN(/C=C\\c1ccccc1)C(=O)c1nc(-c2cccc3ccccc23)n(-c2ccccc2)n1", "values": [{"measurement": "inhibition", "setting": "[2]", "value": 74, "unit": "%"}, {"measurement": "inhibition", "setting": "[7]", "value": 86, "unit": "%"}, {"measurement": "Activity", "setting": "[1]", "value": "Non-toxic"}]}]}
